Measurements as given in PubChem BioAssay (NCI).
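How tested: cells in 96-well plates exposed to compound for 48 hours at five concentrations. GI50 is the concentration that inhibits growth by half. The concentration for full growth arrest is given as TGI.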

Tests used:
Assay in all cases: NCI-60 cell line screen, 48 h
M14 melanoma = system: M14 melanoma
MOLT-4 leukemia = system: MOLT-4 leukemia
ACHN renal = system: ACHN renal
SW-620 colon = system: SW-620 colon
HT29 colon = system: HT29 colon
HCC-2998 colon = system: HCC-2998 colon
CCRF-CEM leukemia = system: CCRF-CEM leukemia
SK-OV-3 ovarian = system: SK-OV-3 ovarian
UACC-62 melanoma = system: UACC-62 melanoma

| SMILES | TGI (M14 melanoma) | TGI (MOLT-4 leukemia) | TGI (ACHN renal) | TGI (SW-620 colon) | TGI (HT29 colon) | TGI (HCC-2998 colon) | TGI (CCRF-CEM leukemia) | TGI (SK-OV-3 ovarian) | TGI (UACC-62 melanoma) | GI50 (M14 melanoma) | GI50 (MOLT-4 leukemia) | GI50 (ACHN renal) | GI50 (SW-620 colon) | GI50 (HT29 colon) | GI50 (HCC-2998 colon) | GI50 (SK-OV-3 ovarian) | GI50 (UACC-62 melanoma) | GI50 (CCRF-CEM leukemia) |
| --- | --- | --- | --- | --- | --- | --- | --- | --- | --- | --- | --- | --- | --- | --- | --- | --- | --- | --- |
| C[C@]12CC[C@H](OC(=O)Nc3ccccc3)CC1=CC[C@@H]1C2CC[C@]2(C)/C(=N/OC(=O)Nc3ccccc3)CCC12 (stereo not given in full) | > 100 µM | > 100 µM | > 100 µM | > 100 µM | > 100 µM | > 100 µM | > 100 µM | > 100 µM | > 100 µM |  |  |  |  |  |  |  |  |  |
| CC(NC1CCCC[C@@H]1O)c1ccccc1 (stereo not given in full) | > 100 µM | > 100 µM | > 100 µM | > 100 µM | > 100 µM | > 100 µM | > 100 µM | > 100 µM | > 100 µM |  |  |  |  |  |  |  |  |  |
| CCOC(=O)c1sc(NC(=O)COc2ccc(/C=C3\CCc4cc(OC)ccc4C3=O)cc2)nc1C | 26.2 µM | 15.3 µM | 32.5 µM | 23.5 µM | 28.6 µM | 4.38 µM |  | 45.3 µM | 23.4 µM | 13.3 µM | 1.76 µM | 13.8 µM | 11.4 µM | 13.7 µM | 1.47 µM | 18.7 µM | 11.3 µM |  |
| CN(C)C(=S)/N=c1\ssc(=Nc2ccccc2)n1-c1ccccc1 | 44.2 µM | > 100 µM | > 100 µM | > 100 µM | > 100 µM | 68.9 µM | > 100 µM | 80.5 µM |  |  |  |  |  |  |  |  |  |  |
| COc1ccccc1/C=C(\NC(=O)c1ccccc1)c1nc2ccccc2[nH]1 | > 100 µM | > 100 µM | > 100 µM | > 100 µM | > 100 µM |  | > 100 µM | > 100 µM | > 100 µM |  |  |  |  |  |  |  |  |  |
| N.N.N.N.O=S([O-])[O-].[Co+3].[N-]=[N+]=[N-] | > 100 µM | > 100 µM | > 100 µM | > 100 µM | > 100 µM | > 100 µM | > 100 µM | > 100 µM | > 100 µM | > 100 µM | > 100 µM | > 100 µM | > 100 µM | > 100 µM | > 100 µM | > 100 µM | > 100 µM | > 100 µM |
| COc1c2c(c(O)c3c4c(c(C)cc13)C1OC3(C(OC)OC5CC(C)(O)C(OC6CC(C)(O)C(O)C(C)O6)C(C)O5)OC1C(OC)(O4)C31CO1)C(=O)C(O)CC2OC1CC(C)(O)C(OC(C)=O)C(C)O1 (stereo not given) | 0.0156 µM | 0.102 µM | 0.0924 µM | 1.23 µM |  | < 0.01 µM |  | 0.714 µM | < 0.01 µM |  |  |  |  |  |  |  |  |  |
| Nc1ccccc1SC(/C=C/NNC1=NC(c2ccccc2)C(c2ccccc2)=NN1)c1ccccc1 (stereo not given) | 25.3 µM | 15.7 µM | 28.6 µM | 29.1 µM | 34.8 µM | 30.5 µM | 7.94 µM | 44.4 µM | 24.1 µM |  |  |  |  |  |  |  |  |  |
| Fc1ccc(-c2ncn(C3CCNCC3)c2-c2ccnc(Oc3ccc(Cl)cc3)n2)cc1 | 9.09 µM | 12.9 µM | 10.6 µM | 7.3 µM | 6.68 µM | 7.93 µM |  | 8.12 µM | 8.04 µM | 4.65 µM | 5.18 µM | 4.19 µM | 3.74 µM | 3.25 µM | 4.12 µM | 3.88 µM | 4.18 µM |  |
| O=C(NNC(=O)c1ccncc1)C(=O)Nc1cc(Cl)c(Cl)cc1Cl | > 100 µM | > 100 µM | > 100 µM | > 100 µM | > 100 µM | 57.8 µM |  | > 100 µM | > 100 µM |  |  |  |  |  |  |  |  |  |
| CCNc1ccc2c(c1)C(=O)N(OS(C)(=O)=O)C2=O | > 100 µM |  | > 100 µM | > 100 µM | > 100 µM | > 100 µM | > 100 µM | > 100 µM | > 100 µM |  |  |  |  |  |  |  |  |  |
| O=C(NCCCN1CCN(CCCNC(=O)Nc2cc(Cl)ccc2Cl)CC1)Nc1cc(Cl)ccc1Cl | > 100 µM | > 100 µM | > 100 µM | > 100 µM | > 100 µM |  | > 100 µM | > 100 µM | > 100 µM |  |  |  |  |  |  |  |  |  |
| COC(=O)c1c(C(=O)O)c(-c2ccccc2)c(-c2ccccc2)c(-c2ccccc2)c1-c1ccccc1 | > 100 µM | > 100 µM | > 100 µM | > 100 µM | > 100 µM |  | > 100 µM | > 100 µM | > 100 µM | > 100 µM | > 100 µM | > 100 µM | > 100 µM | > 100 µM |  | > 100 µM | > 100 µM | > 100 µM |
| O=C1c2ccccc2-c2c1c1ccccc1c(=O)n2CCNCCNCCNCCNCCn1c2c(c3ccccc3c1=O)C(=O)c1ccccc1-2 |  |  | 0.58 µM | 1.17 µM | 4.07 µM |  | 2.65 µM |  | 1.71 µM |  | < 0.0191 µM | 0.0446 µM | 0.0405 µM | 0.0986 µM |  |  | 0.447 µM | 0.125 µM |
| COC(=O)CCC(NC(=S)N/N=C(\C)c1cccs1)C(=O)OC (stereo not given) | > 100 µM |  | > 100 µM | > 100 µM | > 100 µM | > 100 µM |  | > 100 µM | > 100 µM |  |  |  |  |  |  |  |  |  |
| O=C1C(=O)N(c2cc(Cl)ccc2Cl)C(=O)C(=O)C1c1nc2ccccc2s1 | > 100 µM |  | > 100 µM | > 100 µM | > 100 µM |  | > 100 µM | > 100 µM | > 100 µM |  |  |  |  |  |  |  |  |  |
